We go through 1 compound from PMC10895668, “Lead Optimization of the 5-Phenylpyrazolopyrimidinone NPD-2975 toward Compounds with Improved Antitrypanosomal Efficacy” (Journal of Medicinal Chemistry, 2024).

The test system of one data set is T. b. rhodesiense. Put plainly: Trypanosoma susceptibility assay (resazurin viability). It counts as cell-based. As to conditions: Trypanosoma brucei, mean ± SD, n ≥ 2, read-out: pIC50 T. b. rhodesiense (converted). As for the experimental part:
The antiparasitic assays were carried out exactly as described in Blaazer et al.([39]) Metabolic stability, pharmacokinetics, acute mouse infection model results were collected as described previously.[21] All animal experiments were conducted in compliance with institutional guidelines and following approval by the Ethical Committee of the University of Antwerp, Belgium [UA-ECD 2014–96]. Female Swiss mice (15–20 g), were purchased from Janvier (Le Genest Saint Isle, France). […] Animals were treated PO b.i.d. for 5 days at 25 and 50 mg/kg 31c. For the SL-RNA qPCR experiments blood was collected sublingually and subjected to erythrocyte lysis before extracting RNA with the QIAamp RNA Blood Mini kit (Qiagen). […]
Parasites were counted in a KOVA counting chamber and diluted to 1.5 × 10^4 parasites/well of a 96-well plate (200 μL total volume), upon which the prediluted test compounds were added. […] After 3 days of incubation, parasite growth was assessed fluorimetrically after addition of 50 μL of resazurin per well. After 6 h (T. b. rhodesiense) or 24 h (T. b. brucei) at 37 °C, fluorescence is measured (λex 550 nm, λem 590 nm). Parasite viability was assessed using the resazurin viability assay, and drug activity was calculated as percentage viability reduction compared to nontreated controls.
Background: Alamar Blue is a resazurin reagent that responds to reducing activity.

The test system of another data set is T. b. brucei. As to conditions: for survival: n = 3. As for the experimental part: (§1) The antiparasitic assays were carried out exactly as described in Blaazer et al.([39]) Metabolic stability, pharmacokinetics, acute mouse infection model results were collected as described previously.[21] All animal experiments were conducted in compliance with institutional guidelines and following approval by the Ethical Committee of the University of Antwerp, Belgium [UA-ECD 2014–96]. Female Swiss mice (15–20 g), were purchased from Janvier (Le Genest Saint Isle, France). […] Animals were treated PO b.i.d. for 5 days at 25 and 50 mg/kg 31c. For the SL-RNA qPCR experiments blood was collected sublingually and subjected to erythrocyte lysis before extracting RNA with the QIAamp RNA Blood Mini kit (Qiagen). […] Small pieces of fat, brain, and spleen tissue were excised and immediately transferred to RNA later (Qiagen) and incubated overnight at 4 °C. RNA extraction was performed as instructed in the RNeasy Mini Plus Kit manual (Qiagen). The one-step SensiFAST SYBR Hi-Rox PCR kit (Bioline USA Inc., via Gentaur Belgium BVBA, Kampenhout, Belgium) was used for the PCR with the following forward and reverse primers, respectively 5′-[…]-3′ and 5′-[…]-3′. An initial activation step of 10 min at 45 °C and 10 min at 95 °C was used, followed by the amplification step for 40 cycles (15 s at 95 °C, 15 s 50 °C and 15 s at 60 °C). At last, the melting curves were generated with an increment of 0.3 °C (15 s at 95 °C 1 min at 45 °C and 15 s at 95 °C). The PCR was run on the Step One Plus real-time PCR system (Applied Biosystems, California, USA). An additional qPCR was performed with the mouse housekeeping gene Eef2 to confirm successful RNA extraction.
Mice were allocated to groups of three and were infected by IP injection of 10^4T. brucei Squib 427 trypomastigotes. […] Suramin was included as a reference for T. brucei and injected IP s.i.d. for 5 days at 10 mg/kg. A PEG400 vehicle control group was also included. […] The first treatment was given 30 min prior to the artificial infection. Drug efficacy was evaluated by microscopic determination of the parasitemia in a blood drop collected from the tail vein at several time points until 63 days postinfection (dpi). […] An SL-RNA qPCR assay was performed in all surviving animals to confirm parasitological cure. For the SL-RNA qPCR, peripheral blood was subjected to erythrocyte lysis before extracting RNA with the QIAamp RNA Blood Mini kit (Qiagen). […] Small pieces of fat, brain, and spleen tissues were excised and immediately transferred to RNA later (Qiagen) and incubated overnight at 4 °C. RNA extraction was performed as instructed in the RNeasy Mini Plus Kit manual (Qiagen). […]

A short description of data set [1]: In vivo pharmacokinetics in non-infected mice. The method, then: as §1
Blood drops were sampled before treatment and at 0.5, 1, 2, 4, 6, and 24 h after PO dosage; samples after IP dosage were identical with an additional time point of 0.25 h. The blood drops were analyzed adopting the dry blood spot technique and analysis by LC-MS^2. Briefly, blood was collected from the retro-orbital complex using capillary tubes and dropped (15 μL) on WhatmanFTADMPK cards (B). The spots were left to air-dry at room temperature for at least 2 h. For analysis, a 6 mm disk was punched out and extracted in 75:25 MeCN/water containing the internal standard tolbutamide. The amount of parent compound was determined using liquid chromatography (UPLC) (Waters Aquity) coupled with tandem quadrupole mass spectrometry (MS^2) (Waters Xevo) equipped with an electrospray ionization (ESI) interface and operated in multiple reaction monitoring mode. Standard curves in whole blood were made for calibration and validation. Standard PK parameters were determined using Topfit software.
Brain tissue of the animals was collected on ice at autopsy 24 h post-treatment (50 mg/kg oral dose) after perfusion. […] The tissues were immediately homogenized using a GentleMacs tissue homogenizer. The tissue samples were subjected to protein precipitation by adding MeCN, followed by a centrifugation step at 4 °C for 5 min at 21, 130 g. The supernatant was further diluted in 75:25 MeCN/water for LC-MS^2 analysis as described above.

Setting [2] is: female, Swiss, mouse, in vivo, ip, 10 mg/kg.
Where [3] appears, read: female, Swiss, mouse, in vivo, po, 50 mg/kg.

Read-outs that look alike come from different tables or passages of the source.

As a reminder, the AUC(0-t) is exposure summed from dosing to a finite time, without extrapolation to infinity. Read a low AUC(0-t) as less exposure. In general, Cmax refers to the maximum level reached in the sampled fluid or tissue. The term Tmax denotes the time from dosing to the highest level. For orientation: half-life means the time in which the quantity being followed falls by half. Low readings indicate rapid decline, high ones slow decline. Consider `CC(C)(C)c1n[nH]c2c(=O)[nH]c(-c3ccc(F)cc3)nc12` [31c, 3-(tert-Butyl)-5-(4-fluorophenyl)-1,6-dihydro-7H-pyrazolo[4,3-d]pyrimidin-7-one], for which the IC50 in the data set with T. b. rhodesiense is 10 nM. The survival result with T. b. brucei (25 mg/kg b.i.d. PO for 5 days, one accidental death in this group) is reported as “survived throughout the 60 days postinfection follow-up period without relapse”. Further, in the data set on T. b. brucei (50 mg/kg b.i.d. PO for 5 days), the survival entry is on record as “survived throughout the 60 days postinfection follow-up period without relapse”. Besides, the “trypanosome Spliced Leader (SL) RNA by qPCR” value in the data set with T. b. brucei (blood, spleen, fat and brain tissue of surviving animals) is listed as “difficulty to detect trypanosome Spliced Leader (SL) RNA”. Moreover, the “blood concentration exceeding the in vitro IC50 against T. brucei” value in data set [1] (both routes (10 mg/kg IP, 50 mg/kg PO)) is “more than 300 fold”. Also, in data set [1] (setting [2]), the AUC(0-t) at 24 h was 2470 ± 1560 ng·h/mL, the Cl is on record as 326 ± 148, the Cmax at 24 h was found to be 5.05 ± 1.51 µM and the Tmax at 24 h was determined as 0.5 ± 0.3 h. The compound also gave a half-life at 24 h in data set [1] (setting [2]) of 1.56 ± 0.5 h. Moreover, in data set [1] (setting [3]), the “AUC0–6 h higher compared with 2” value is “more than 7 fold”, the AUC(0-t) at 24 h worked out at 43400 ng·h/mL, the Cl turned out to be 11 ± 1 and the concentration peaked (Cmax at 24 h) at 10.9 ± 1.69 µM. Further, in data set [1] (setting [3]), the Tmax at 24 h was determined as 6 h, the concentration at 24 h was 0.296 µM and the half-life at 24 h is 3.51 ± 1.34 h.
